Experiments:
[1] = biological target: T1, ΔTRα2 (T4 Inactivating Protein; TIP) (Rattus norvegicus, UniProt P63059); assay: rT3 binding displacement in nuclei-free extracts of cultured rat astrocytes; details: ΔTRα2-containing nuclei-free astrocyte extracts; rT3 as ligand; read-out: Kd, displacement of rT3
T1 construct: ΔTRα2 is encoded by exons 8-10 resulting in an approximately 25 kd protein
Method: The properties of thyroid hormone binding to non-nuclear components of the cell were examined using ΔTRα2 (T4 Inactivating Protein; TIP)-containing, nuclei-free extracts of cultured rat astrocytes. […] Both rT3 and T4 specifically displace rT3 with Kd's of approximately 0.3-0.5 nM.

[2] = biological target: ΔTRα1 (Rattus norvegicus, UniProt P63059); assay: [125I]rT3 displacement from cell-free translated ΔTRα1; format: binding; details: cell-free translated polypeptide
Source text: (§1) ΔTRα1 and ΔTRα2 polypeptides were synthesized by cell-free translation of appropriate segments of the rat ΔTRα1 and ΔTRα2 cDNA using the coupled transcription-translation kit from Promega® (TNT) according to the manufacturer's instructions.

[3] = biological target: T2, ΔTRα2 (Rattus norvegicus, UniProt P63059); assay: [125I]rT3 displacement from cell-free translated ΔTRα2; format: binding; details: cell-free translated polypeptide
T2 sequence (P63059 256-492): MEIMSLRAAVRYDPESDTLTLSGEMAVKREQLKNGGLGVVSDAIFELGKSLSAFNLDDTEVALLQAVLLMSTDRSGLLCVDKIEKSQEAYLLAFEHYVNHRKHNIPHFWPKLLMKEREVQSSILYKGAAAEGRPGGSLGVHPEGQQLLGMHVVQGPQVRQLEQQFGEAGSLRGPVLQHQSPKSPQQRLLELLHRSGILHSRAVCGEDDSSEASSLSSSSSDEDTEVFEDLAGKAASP
Source text: as §1

[4] = biological target: binding of p29^GFP vesicles to F-actin; assay: modified in vitro actin binding assay with p29^GFP-labeled vesicles; format: biochemical, rat; details: 0-100 nM, 20 minutes at 37° C.; read-out: EC50, increase in quantity of p29^GFP bound to F-actin
Method: To define the specific region(s) of the myosin V tail that interact with the p29 vesicle, a series of deletion mutations were created based on the dominant negative effect of exogenous myosin V tail on p29 vesicle binding. Competition analysis of the myosin V deletion mutations on T4-dependent binding of p29 vesicles to F-actin was performed using a modified in vitro assay in which a GFP-tagged p29 fusion protein (p29^GFP) replaced the radioaffinity labeled native p29 (Farwell et al., 1990, J. Biol. Chem. 265:18546-18553; Farwell et al., 1993, J. Biol. Chem. 268:5055-5062). This allowed direct evaluation of the binding of fluorescent vesicles to F-actin without affinity radiolabeling of the p29 and subsequent SDS-PAGE analysis.
Specific fluorescence at 510 nm (excitation, 488 nm) was then determined in the resuspended Triton-insoluble pellets.
To determine if the myosin V tail could be captured by the p29^GFP vesicle, an exogenous myosin V^tail was introduced into astrocytes constitutively expressing p29^GFP by infection with Ad5-ΔMyo V^tail virus particles and examined the effects of T4 on the binding of the myosin V^tail to immunopurified p29^GFP vesicles. Astrocytes expressing p29^GFP were grown in serum-free media and treated for 16 hours with 1 mM bt2cAMP and 100 nM hydrocortisone. A separate pool of astrocytes was treated in serum-free media supplemented with 10 μM retinoic acid. Cells were collected by scraping, and lysed by two freeze-thaw cycles. […] Triton-soluble (vesicle) and Triton-insoluble (F-actin) fractions were separated by microflige centrifugation. Triton pellets were resuspended in 300 μl of PBS and fluorescence at 510 nm (excitation 488 nm) determined and relative fluorescence was reported as arbitrary units. Cells were treated with 10 nM T4 for twenty minutes and a Triton-soluble supernatant was prepared. Vesicles containing the p29^GFP were immunoprecipitated by anti-GFP IgG (2 μg/ml) and protein in the immunoprecipitates were resolved by SDS-PAGE. Immunoblot analysis of vesicle-associated myosin V was performed using the anti-myosin V antibody directed against the C-terminus.
The quantity of each mutant protein synthesized was determined by [^35 S]-methionine incorporation. Astrocytes expressing p29^GFP were grown in serum-free media and treated for 16 hours with […] bt2cAMP and 100 nM hydrocortisone. p29^GFP V-lysate and F-lysate were prepared as described herein. 100 μg aliquots of p29^GFP V-lysate and F-lysate were pre-incubated, in triplicate, for 20 minutes at 37° C. in the presence of individual Δ myosin V mutant proteins (˜2-3 pmol polypeptide/50 μl mixture) were added to the actin-binding assay and pre-incubated for 20 minutes at 37° C. T4 (10 nM) was then added, the mixtures incubated for 20 minutes at 37° C., and F-actin bound, fluorescent p29^GFP vesicles were then isolated in the Triton-insoluble pellet.
V lysates prepared from astrocytes over-expressing p29^GFP were pre-incubated for 30 minutes at room temperature with antisera raised against ΔTRα2, ΔTRα1, the C-terminus of MyoV (encoded by MyoV^tail, FIG. 5), the coiled-coil region of MyoV (encoded by MyoV^coil-coil, FIG. 5) and GFP (green fluorescent protein). T4 (10 nM) and actin fiber-containing F-lysate was then added, the mixtures incubated at 37° C. for 20 minutes, and the Triton-insoluble fraction isolated by centrifugation.

[5] = test system: astrocytes; assay: subcellular distribution of immunoreactive TRα2-derived proteins in cultured astrocytes; format: cell-based, rat; details: serum-free medium, treated 20 minutes, 0.1% bovine serum albumin carrier
Source text: The subcellular distribution of immunoreactive thyroid hormone receptor-derived proteins in primary brain cell cultures and in cultured astrocytes was examined. Primary brain cell cultures were fixed with 0.4% paraformaldehyde, permeabilized with Triton X-100®, and stained for TRα-derived proteins using specific antisera directed against the unique C-termini of TRα1 and TRα2 proteins, and visualized by staining with a secondary tagged antibody. Consistent with previous observations (Kolodny et al., 1985, Endocrinol. 117: 1848-1857), immunoreactive TRα1 proteins were found in the nuclei of astrocytes and neuronal cells. However, TRα2-derived proteins were not localized to the nucleus in either astrocytes or neurons, but appeared as donut shaped structures located throughout the astrocyte or as discreet punctate signals along neuronal fibers. This latter pattern is diagnostic for synapses in neuronal cultures (Wong et al., 1999, Neurosci. 89:221-233), and is consistent with the presence of ΔTRα2-derived protein in nerve terminals.
The subcellular distribution of immunoreactive TRα2-derived proteins in cultured astrocytes was influenced by the presence of either T4 or rT3. In these experiments astrocytes were grown in serum-free medium, treated for 20 minutes with either […] or rT3, and fixed, permeabilized, and stained as described above. […]

[6] = test system: D2 activity; details: in astrocytes; cited from earlier work

T1 sequence (P63059 whole entry, stated change not applied): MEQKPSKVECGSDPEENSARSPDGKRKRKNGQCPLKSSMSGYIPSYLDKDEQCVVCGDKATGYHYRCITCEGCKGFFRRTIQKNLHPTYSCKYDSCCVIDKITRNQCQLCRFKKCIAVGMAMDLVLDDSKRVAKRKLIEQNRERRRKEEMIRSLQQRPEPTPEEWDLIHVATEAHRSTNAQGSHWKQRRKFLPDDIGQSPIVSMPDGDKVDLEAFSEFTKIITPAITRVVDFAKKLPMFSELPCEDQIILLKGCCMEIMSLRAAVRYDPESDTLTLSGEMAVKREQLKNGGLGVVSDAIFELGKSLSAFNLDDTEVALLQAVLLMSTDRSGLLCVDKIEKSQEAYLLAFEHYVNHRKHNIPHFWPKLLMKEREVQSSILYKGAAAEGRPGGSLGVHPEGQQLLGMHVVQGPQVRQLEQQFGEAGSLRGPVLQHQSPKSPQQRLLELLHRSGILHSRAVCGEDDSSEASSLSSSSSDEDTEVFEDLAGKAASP

Question: With N[C@@H](Cc1cc(I)c(Oc2cc(I)c(O)c(I)c2)c(I)c1)C(=O)O [T4, thyroxine] as the compound, how does the Kd [1] read?
Answer: 0.3 to 0.5 nM

Question: What about the Kd [2] of the same compound?
Answer: 0.3 to 1 nM

Question: And the Kd [3]?
Answer: 0.3 to 1 nM

Question: And the EC50 [4]?
Answer: ~0.5 nM

Question: And the “subcellular distribution of TRα2-derived proteins” value [5]?
Answer: coalescence of the TRα2-derived proteins around the perinuclear space

Question: And the “quantity of D2 activity” value [6]?
Answer: decreases the quantity of D2 activity
